Source: patent US8785459B2, “Quinazoline compounds as kinase inhibitors” (Development Center for Biotechnology, priority 2011, dated 2014)

Columns and labels:
Assay type in all cases: biochemical
C-Raf = C-Raf (Homo sapiens (Human), UniProt P04049); assay: Raf kinase assay (C-Raf), [33P] incorporation into MEK1(K97R)
Method: (§1) A. Raf Kinase Assays (B-Raf, B-raf (V600E), and C-Raf)
(§2) Inhibition of kinase activity by test compound disclosed herein was estimated by quantifying the amount of [^33P] incorporation of substrate in the presence of test compound. Standard assay conditions were 2 ng of recombinant C-Raf or 5 ng of recombinant B-Raf or 5 ng of recombinant B-Raf (V600E) kinase (Upstate Biotechnology) with 500 ng MEK1(K97R) in assay buffer {8 μM ATP, 0.5 μCi [^33P]ATP (specific activity 3000 Ci/mmol, PerkinElmer), 50 mM Tris/HCl (pH7.5), and 1 mM EGTA, 1 mM Na3VO4, 1% 2-mercaptoethanol, 0.1% Brij 35, and 0.2 mg/ml BSA} at a final volume of 25 μL. Reactions were incubated at 30° C. for 30 min and stopped by adding 3% phosphoric acid, harvested onto a 96-well GF/B UniFilter (PerkinElmer) using a unifilter harvester (PerkinElmer), and counted with a TopCount microplate scintillation counter (PerkinElmer). The IC50 values of inhibitors were determined after carrying out assays at 3-fold serially diluted concentrations of each compound in duplication. The results were analyzed using linear regression software (GraphPad Prism 4; GraphPad Software Inc.). Inhibition of B-Raf, B-raf (V600E), and C-Raf kinases by various compounds listed in Table 1 are summarized and shown in Table 3 below. IC50 value is defined as the concentration of the test compound which achieves a half-maximal inhibition of the kinase activity.

B-Raf (V600E) = B-Raf (V600E) (Homo sapiens (Human), UniProt P15056, V600E); assay: Raf kinase assay (B-Raf (V600E)), [33P] incorporation into MEK1(K97R)
Method: as §1, §2

B-Raf = B-Raf (Homo sapiens (Human), UniProt P15056); assay: Raf kinase assay (B-Raf), [33P] incorporation into MEK1(K97R); conditions: for inhibition at 1 µM / B-Raf inhibition at 1.0 μM: 1.0 μM compound; for inhibition at 1 µM: read-out: B-Raf inhibition at 1.0 μM
Summary of the method: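 [33P] transfer to kinase-dead MEK1(K97R) substrate (500 ng) measured after 30 min at 30 °C in Tris pH 7.5 buffer containing 8 μM ATP. Enzyme inputs were 2 ng for C-Raf and 5 ng for B-Raf and B-Raf V600E. Duplicate 3-fold serial dilutions gave the half-maximal inhibitory concentration.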

Chain of B-Raf (V600E) (P15056 whole entry V600E): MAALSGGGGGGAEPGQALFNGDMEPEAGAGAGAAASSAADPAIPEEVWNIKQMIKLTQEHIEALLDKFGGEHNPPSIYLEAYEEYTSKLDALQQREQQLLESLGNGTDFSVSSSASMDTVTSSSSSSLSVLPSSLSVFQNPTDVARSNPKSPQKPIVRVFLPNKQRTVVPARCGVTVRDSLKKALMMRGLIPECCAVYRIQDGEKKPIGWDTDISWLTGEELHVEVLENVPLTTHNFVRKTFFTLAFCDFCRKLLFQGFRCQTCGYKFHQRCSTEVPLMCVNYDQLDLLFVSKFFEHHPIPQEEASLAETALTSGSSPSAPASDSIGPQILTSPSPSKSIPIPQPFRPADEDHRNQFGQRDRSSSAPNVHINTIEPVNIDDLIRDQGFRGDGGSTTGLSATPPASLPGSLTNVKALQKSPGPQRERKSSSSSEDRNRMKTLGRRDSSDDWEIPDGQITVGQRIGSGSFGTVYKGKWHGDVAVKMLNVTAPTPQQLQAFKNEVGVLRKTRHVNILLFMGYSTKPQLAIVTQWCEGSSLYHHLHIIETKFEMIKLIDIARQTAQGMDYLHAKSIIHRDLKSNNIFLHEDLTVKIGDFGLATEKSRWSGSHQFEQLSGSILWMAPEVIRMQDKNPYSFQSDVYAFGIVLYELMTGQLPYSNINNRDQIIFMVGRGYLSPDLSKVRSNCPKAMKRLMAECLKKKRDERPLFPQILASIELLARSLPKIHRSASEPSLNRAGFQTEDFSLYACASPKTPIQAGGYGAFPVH
Chain of C-Raf (P04049 whole entry): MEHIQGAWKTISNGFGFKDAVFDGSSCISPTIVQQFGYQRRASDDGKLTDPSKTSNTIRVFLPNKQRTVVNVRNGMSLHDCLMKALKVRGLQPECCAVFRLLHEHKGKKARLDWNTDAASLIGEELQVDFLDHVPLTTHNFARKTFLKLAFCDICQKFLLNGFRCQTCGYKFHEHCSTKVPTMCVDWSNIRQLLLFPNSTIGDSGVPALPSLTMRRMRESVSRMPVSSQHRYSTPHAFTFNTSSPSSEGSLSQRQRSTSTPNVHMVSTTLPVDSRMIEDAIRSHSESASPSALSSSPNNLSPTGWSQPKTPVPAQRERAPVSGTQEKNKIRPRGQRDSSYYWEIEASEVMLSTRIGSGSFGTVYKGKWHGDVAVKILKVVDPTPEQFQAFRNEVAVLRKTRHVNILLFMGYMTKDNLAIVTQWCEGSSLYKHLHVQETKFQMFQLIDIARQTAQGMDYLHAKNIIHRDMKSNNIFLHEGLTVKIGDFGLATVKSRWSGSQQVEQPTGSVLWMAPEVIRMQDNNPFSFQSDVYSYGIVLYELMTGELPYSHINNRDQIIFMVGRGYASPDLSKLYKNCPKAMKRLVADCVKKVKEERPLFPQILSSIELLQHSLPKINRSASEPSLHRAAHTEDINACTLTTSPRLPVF
Chain of B-Raf (P15056 whole entry): as the sequence (P15056 whole entry V600E) above, with E600V counted along it

Compound `OCc1cccc(-c2ccc3ncnc(Nc4cccc5[nH]ncc45)c3c2)c1` [Compound 94, (3-(4-(1H-indazol-4-ylamino)quinazolin-6-yl)phenyl)methanol] has an IC50 (C-Raf) of 1410 nM, an IC50 (B-Raf (V600E)) of 551 nM and an IC50 (B-Raf) of 430 nM. The inhibition at 1 µM (B-Raf) was 76.2%.
Work on `CS(=O)(=O)Nc1cccc(-c2ccc3ncnc(Nc4cccc5[nH]ncc45)c3c2)c1` [Compound 95, N-(3-(4-(1H-indazol-4-ylamino)quinazolin-6-yl)phenyl)methanesulfonamide] yielded an IC50 (C-Raf) of 1290 nM, an IC50 (B-Raf (V600E)) of 534 nM and an IC50 (B-Raf) of 430 nM. It also gave an inhibition at 1 µM (B-Raf) of 70.9%.
`COc1cc(-c2ccc3ncnc(Nc4cccc5c4cnn5C)c3c2)ccc1O` [Compound 99, 2-methoxy-4-(4-(1-methyl-1H-indazol-4-ylamino)quinazolin-6-yl)phenol] showed an IC50 (C-Raf) of 3910 nM, an IC50 (B-Raf (V600E)) of 451 nM and an IC50 (B-Raf) of 358 nM. It also gave an inhibition at 1 µM (B-Raf) of 61.1%.
Work on `Cc1ccc(F)cc1-c1ccc2ncnc(Nc3cccc4[nH]ncc34)c2c1` [Compound 104, 6-(5-fluoro-2-methylphenyl)-N-(1H-indazol-4-yl)quinazolin-4-amine] yielded an IC50 (C-Raf) of 778 nM, an IC50 (B-Raf (V600E)) of 357 nM and an IC50 (B-Raf) of 235 nM. The inhibition at 1 µM (B-Raf) was 81.1%.
With `COc1cccc(-c2ccc3ncnc(Nc4cccc5[nH]ncc45)c3c2)c1OC` [Compound 105, 6-(2,3-dimethoxyphenyl)-N-(1H-indazol-4-yl)quinazolin-4-amine] the IC50 (C-Raf) was 2130 nM, the IC50 (B-Raf (V600E)) was 515 nM and the IC50 (B-Raf) was 380 nM. For the same compound, the inhibition at 1 µM (B-Raf) was 72.6%.
Work on `CN(C)c1ccc(-c2ccc3ncnc(Nc4cccc(O)c4)c3c2)cc1` [Compound 106, 3-(6-(4-(dimethylamino)phenyl)quinazolin-4-ylamino)phenol] yielded an IC50 (C-Raf) of 3190 nM, an IC50 (B-Raf (V600E)) of 292 nM and an IC50 (B-Raf) of 272 nM. For the same compound, the inhibition at 1 µM (B-Raf) was 78.7%.
For `NS(=O)(=O)c1ccc(-c2ccc3ncnc(Nc4cccc5[nH]ncc45)c3c2)cc1` [Compound 107, 4-(4-(1H-indazol-4-ylamino)quinazolin-6-yl)benzenesulfonamide], the IC50 (C-Raf) was 677 nM, the IC50 (B-Raf (V600E)) was 328 nM and the IC50 (B-Raf) was 345 nM. It also gave an inhibition at 1 µM (B-Raf) of 75.4%.
With `CCS(=O)(=O)Nc1cccc(-c2ccc3ncnc(Nc4cccc5[nH]ncc45)c3c2)c1` [Compound 108, N-(3-(4-(1H-indazol-4-ylamino)quinazolin-6-yl)phenyl)ethanesulfonamide] the IC50 (C-Raf) was 680 nM, the IC50 (B-Raf (V600E)) was 244 nM and the IC50 (B-Raf) was 221 nM. For the same compound, the inhibition at 1 µM (B-Raf) was 81.1%.
For `CS(=O)(=O)c1ccc(-c2ccc3ncnc(Nc4cccc5[nH]ncc45)c3c2)cc1` [Compound 110, N-(1H-indazol-4-yl)-6-(4-(methylsulfonyl)phenyl)quinazolin-4-amine], the IC50 (C-Raf) was 650 nM, the IC50 (B-Raf (V600E)) was 273 nM and the IC50 (B-Raf) was 248 nM. It also gave an inhibition at 1 µM (B-Raf) of 81.8%.
Compound `COc1ccc(-c2ccc3nccc(Nc4cccc5[nH]ncc45)c3c2)cc1F` [Compound 112, 6-(3-fluoro-4-methoxyphenyl)-N-(1H-indazol-4-yl)quinolin-4-amine] has an IC50 (C-Raf) of 619 nM, an IC50 (B-Raf (V600E)) of 207 nM and an IC50 (B-Raf) of 182 nM. The inhibition at 1 µM (B-Raf) was 80.2%.
`COc1ccc(-c2ccc3nccc(Nc4cccc5[nH]ncc45)c3c2)cc1OC` [Compound 113, 6-(3,4-dimethoxyphenyl)-N-(1H-indazol-4-yl)quinolin-4-amine] gave an IC50 (C-Raf) of 972 nM, an IC50 (B-Raf (V600E)) of 291 nM and an IC50 (B-Raf) of 263 nM. For the same compound, the inhibition at 1 µM (B-Raf) was 75.5%.
In the case of `COc1ccc(-c2ccc3nccc(Nc4cccc5[nH]ncc45)c3c2)cc1Cl` [Compound 115, 6-(3-chloro-4-methoxyphenyl)-N-(1H-indazol-4-yl)quinolin-4-amine], the IC50 (C-Raf) is reported as 735 nM, the IC50 (B-Raf (V600E)) is reported as 278 nM and the IC50 (B-Raf) is reported as 267 nM. It also gave an inhibition at 1 µM (B-Raf) of 76.6%.
`COc1cc(-c2ccc3ncnc(Nc4cccc(OC(F)F)c4)c3c2)ccc1O` [Compound 118, 4-(4-(3-(difluoromethoxy)phenylamino)quinazolin-6-yl)-2-methoxyphenol] was tested, and the IC50 (C-Raf) was 988 nM, the IC50 (B-Raf (V600E)) was 525 nM and the IC50 (B-Raf) was 548 nM. For the same compound, the inhibition at 1 µM (B-Raf) was 68.2%.
Work on `COc1cc(-c2ccc3ncnc(Nc4ccccc4F)c3c2)ccc1O` [Compound 119, 4-(4-(2-fluorophenylamino)quinazolin-6-yl)-2-methoxyphenol] yielded an IC50 (C-Raf) of 1440 nM, an IC50 (B-Raf (V600E)) of 633 nM and an IC50 (B-Raf) of 543 nM. It also gave an inhibition at 1 µM (B-Raf) of 67.1%.
`Nc1ccc(-c2ccc3nccc(Nc4cccc5[nH]ncc45)c3c2)cc1` [Compound 121, 6-(4-aminophenyl)-N-(1H-indazol-4-yl)quinolin-4-amine] was tested, and the IC50 (C-Raf) was 753 nM, the IC50 (B-Raf (V600E)) was 284 nM and the IC50 (B-Raf) was 227 nM. It also gave an inhibition at 1 µM (B-Raf) of 76.2%.
Work on `CCCS(=O)(=O)Nc1cccc(-c2ccc3nccc(Nc4cccc5[nH]ncc45)c3c2)c1` [Compound 122, N-(3-(4-(1H-indazol-4-ylamino)quinolin-6-yl)phenyl)propane-1-sulfonamide] yielded an IC50 (C-Raf) of 439 nM, an IC50 (B-Raf (V600E)) of 264 nM and an IC50 (B-Raf) of 259 nM. It also gave an inhibition at 1 µM (B-Raf) of 77.5%.
For `COc1cccc(-c2ccc3nccc(Nc4cccc5[nH]ncc45)c3c2)c1` [Compound 123, N-(1H-indazol-4-yl)-6-(3-methoxyphenyl)quinolin-4-amine], the IC50 (C-Raf) was 688 nM, the IC50 (B-Raf (V600E)) was 263 nM and the IC50 (B-Raf) was 231 nM. The inhibition at 1 µM (B-Raf) was 80.3%.
Work on `Fc1ccccc1-c1ccc2nccc(Nc3cccc4[nH]ncc34)c2c1` [Compound 125, 6-(2-fluorophenyl)-N-(1H-indazol-4-yl)quinolin-4-amine] yielded an IC50 (C-Raf) of 1030 nM, an IC50 (B-Raf (V600E)) of 423 nM and an IC50 (B-Raf) of 285 nM. The inhibition at 1 µM (B-Raf) was 71.2%.
`COc1cc(-c2ccc3ncnc(Nc4cccc5[nH]c(=O)[nH]c45)c3c2)ccc1O` [Compound 127, 4-(6-(4-hydroxy-3-methoxyphenyl)quinazolin-4-ylamino)-1H-benzo[d]imidazol-2(3H)-one] showed an IC50 (C-Raf) of 8390 nM, an IC50 (B-Raf (V600E)) of 1090 nM and an IC50 (B-Raf) of 888 nM. For the same compound, the inhibition at 1 µM (B-Raf) was 53.5%.
In the case of `COc1cc(-c2ccc3nccc(Nc4cc(NS(C)(=O)=O)ccc4F)c3c2)ccc1O` [Compound 128, N-(4-fluoro-3-(6-(4-hydroxy-3-methoxyphenyl)quinolin-4-ylamino)phenyl)methanesulfonamide], the IC50 (C-Raf) is reported as 12800 nM, the IC50 (B-Raf (V600E)) is reported as 4280 nM and the IC50 (B-Raf) is reported as 4130 nM. For the same compound, the inhibition at 1 µM (B-Raf) was 18.5%.
With `COc1cc(-c2ccc3ncnc(Nc4cc(NS(C)(=O)=O)ccc4F)c3c2)ccc1O` [Compound 129, N-(4-fluoro-3-(6-(4-hydroxy-3-methoxyphenyl)quinazolin-4-ylamino)phenyl)methanesulfonamide] the IC50 (C-Raf) was 1060 nM, the IC50 (B-Raf (V600E)) was 270 nM and the IC50 (B-Raf) was 240 nM. The inhibition at 1 µM (B-Raf) was 77.5%.
In the case of `Oc1ccc(-c2ccc3ncnc(Nc4cccc5[nH]ncc45)c3c2)cc1` [Compound 131, 4-(4-(1H-indazol-4-ylamino)quinazolin-6-yl)phenol], the IC50 (C-Raf) is reported as 4210 nM, the IC50 (B-Raf (V600E)) is reported as 547 nM and the IC50 (B-Raf) is reported as 451 nM. It also gave an inhibition at 1 µM (B-Raf) of 80.1%.
Compound `COc1cc(-c2ccc3ncnc(Nc4c(F)cccc4F)c3c2)ccc1O` [Compound 134, 4-(4-(2,6-difluorophenylamino)quinazolin-6-yl)-2-methoxyphenol] has an IC50 (C-Raf) of 4420 nM, an IC50 (B-Raf (V600E)) of 706 nM and an IC50 (B-Raf) of 760 nM. For the same compound, the inhibition at 1 µM (B-Raf) was 57.7%.
With `COc1cc(-c2ccc3ncnc(Nc4c(F)ccc5[nH]ncc45)c3c2)ccc1O` [Compound 136, 4-(4-(5-fluoro-1H-indazol-4-ylamino)quinazolin-6-yl)-2-methoxyphenol] the IC50 (C-Raf) was 1130 nM, the IC50 (B-Raf (V600E)) was 268 nM and the IC50 (B-Raf) was 350 nM. The “B-Raf inhibition at 1.0 μM” value (B-Raf) was 84.9%.
`Oc1cccc(-c2ccc3ncnc(Nc4cccc5[nH]ncc45)c3c2)c1` [Compound 143, 3-(4-(1H-indazol-4-ylamino)quinazolin-6-yl)phenol] showed an IC50 (C-Raf) of 1960 nM, an IC50 (B-Raf (V600E)) of 357 nM and an IC50 (B-Raf) of 227 nM. The inhibition at 1 µM (B-Raf) was 75.4%.
`COc1cccc(-c2ccc3ncnc(Nc4cccc5[nH]ncc45)c3c2)c1` [Compound 144, N-(1H-indazol-4-yl)-6-(3-methoxyphenyl)quinazolin-4-amine] showed an IC50 (C-Raf) of 3900 nM, an IC50 (B-Raf (V600E)) of 472 nM and an IC50 (B-Raf) of 309 nM. The inhibition at 1 µM (B-Raf) was 62.6%.
`COc1cccc(-c2ccc3nccc(Nc4cccc5[nH]ncc45)c3c2)c1` [Compound 146, N-(1H-indazol-4-yl)-6-(3-methoxyphenyl)quinolin-4-amine] gave an IC50 (C-Raf) of 3700 nM, an IC50 (B-Raf (V600E)) of 426 nM and an IC50 (B-Raf) of 614 nM. For the same compound, the “B-Raf inhibition at 1.0 μM” value (B-Raf) was 64.3%.
For `COc1ccc(-c2ccc3ncnc(Nc4cccc5[nH]ncc45)c3c2)cc1` [Compound 147, N-(1H-indazol-4-yl)-6-(4-methoxyphenyl)quinazolin-4-amine], the IC50 (C-Raf) was 2950 nM, the IC50 (B-Raf (V600E)) was 848 nM and the IC50 (B-Raf) was 680 nM. It also gave an inhibition at 1 µM (B-Raf) of 50.7%.
`Oc1cccc(-c2ccc3nccc(Nc4cccc5[nH]ncc45)c3c2)c1` [Compound 148, 3-(4-(1H-indazol-4-ylamino)quinolin-6-yl)phenol] gave an IC50 (C-Raf) of 584 nM, an IC50 (B-Raf (V600E)) of 359 nM and an IC50 (B-Raf) of 230 nM. It also gave an inhibition at 1 µM (B-Raf) of 68.9%.
